Literature values as cited in US9676702B2, “Methods for synthesizing amatoxin building block and amatoxins” (Heidelberg Pharma GmbH, priority 2012, dated 2017).

Molecular target: RNA-polymerase II (Homo sapiens, UniProt P24928+P30876)
Conditions: non-covalent complex; background statement, no method given; read-out: KD of the complex between amanitin and RNA-polymerase II

For amanitin, the Kd is given as 3 nM.
